Tests used:
[1] = tested on: H1 human embryonic stem cells; experiment: Analog screening with GDF-8 and growth factor/agonist pool (Example 8, Tables 7 and 8); format: cell-based
Method in brief: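 H1 hESC clusters, washed free of growth factors, fed on alternate days over 4 days with DMEM:F12, 0.5% FCS, 2.5 μM compound, 25 ng/ml GDF-8 plus a 50 ng/ml growth-factor pool. Fixed cells immunostained for SOX17 and imaged; total SOX17 intensity normalised to positive control.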

[2] = tested on: H1 human embryonic stem cells; experiment: Analogue screening in combination with only GDF-8, SOX17 (Example 21, Tables 18 and 19); format: cell-based; parameters: Sox17 Expression: % of positive control / Cell Number: % of positive control: tested at 2.5 µM; details: compound in combination with GDF8; for Cell Number: Average Total Cell Number / Sox17 Expression: Average Total Intensity: four assay plates; for Cell Number: % of positive control / Sox17 Expression: % of positive control: relative to Activin A/Wnt3a of the same plate;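 as to all read-outs here: cells treated with 200 ng/ml GDF-8 in DMEM:F12 with FCS over four days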
Method in brief: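 H1 human ES cells treated four days with 200 ng/ml GDF-8 plus 2.5 μM compound (day 1, 0.5% FCS), GDF-8 alone in 2% FCS on day 3; triplicates. Fixed cells immunostained for SOX17 with Hoechst counterstain, imaged at 15 fields/well; total SOX17 intensity normalized to activin A/Wnt3a positive control.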

[3] = Plate 2, compound + EGF, FGF, PDGF-A, VEGF, PDGF-D, muscimol, GDF8
[4] = Plate 2, compound + EGF, FGF, PDGF-A, VEGF, PDGF-D, muscimol, GDF8, positive control Activin A/Wnt3a
[5] = Table 8: hits with greater than 25% activity of the positive control, with GDF-8 and growth factors/agonists
[6] = Plate 1, compound + EGF, FGF, PDGF-A, VEGF, PDGF-D, muscimol, GDF8
[7] = Plate 1, compound + EGF, FGF, PDGF-A, VEGF, PDGF-D, muscimol, GDF8, positive control Activin A/Wnt3a

Row | SMILES | Cell Number, Average Total Cell Number [1, 3] | Sox17 Expression, Average Total Intensity [1, 3] | Cell Number, % of positive control [1, 4] | Sox17 Expression, % of positive control [1, 4] | Cell Number, % of positive control [1, 5] | Sox17 Expression, % of positive control [1, 5] | Sox17 Expression, Average Total Intensity [1, 5] | Cell Number: Average Total Cell Number [2] | Sox17 Expression: Average Total Intensity [2] | Cell Number: % of positive control [2] | Sox17 Expression: % of positive control [2] | Cell Number, Average Total Cell Number [1, 6] | Sox17 Expression, Average Total Intensity [1, 6] | Cell Number, % of positive control [1, 7] | Sox17 Expression, % of positive control [1, 7]
1 | CN1CCCC(=O)NCCc2cccc(c2)Nc2ncnc(n2)-c2cccc(c2)CCC1 [Compound 33, 20-Methyl-3,5,7,15,20,30-hexaazatetracyclo[22.3.1.1˜2,6˜0.1˜8,12˜]triaconta-1(28), 2(30), 3,5,8(29), 9,11,24,26-nonaen-16-one] | 7485 | 8.10E+07 | 47.4 % of positive control | 28.3 % of positive control | 47.4 % of positive control | 28.3 % of positive control | 8.10E+07 | 2362 | 6.60E+06 | 15.4% | 2.0% |  |  |  | 
2 | O=C1NCCc2cccc(c2)Nc2ncnc(n2)-c2cccc(c2)CCCN2CCC1CC2 [Compound 31, 1,11,13,15,23,31-Hexaazapentacyclo[23.2.2.1˜5,9˜0.1˜10,14˜0.1˜16,20˜]dotriaconta-5(32), 6,8,10(31), 11,13,16(30), 17,19-nonaen-24-one] |  |  |  |  | 51.9 % of positive control | 26.3 % of positive control | 6.59E+07 | 3619 | 1.36E+07 | 24.1% | 3.9% | 6957 | 6.59E+07 | 51.9 % of positive control | 26.3 % of positive control
